Measured values as given in patent publication US10807992B2, “Single enantiomer antiparasitic compounds” (priority 2017, dated 2020).
Like-named read-outs stand apart in the source and are kept apart here.

What was measured:
Aedes aegypti [1] = test: In vitro contact activity against adult mosquitoes (coated vial)
Description: (§1) Aedes aegypti (Louisiana Biologicals Inc., New Orleans, La.) eggs were allowed to hatch, close, and age between 3-5 days in an environmental chamber at 26° C., 80% humidity with light/dark cycles.
For mosquito assays, an aliquot from each compound stock was added to an acetone/triton solution to achieve the desired top doses for the study. Serial dilutions were conducted from the top dose (i.e. 50 ppm) to achieve the desired titration range for EC50 and EC90 determination. The final DMSO concentration in each test vial was 0.5%. A 459 μL aliquot of each compound formulation was transferred to a vial and vials were immediately placed on an unheated roller unit to allow for an even coating of the vial walls. The vials were loosely capped and allowed to dry for a minimum of four hours in a chemical fume hood.
(§2) For both contact and ingestion assays, five female Aedes aegypti adults were added to each vial or cage. The test vials for contact assays were held in an environmental chamber at 24° C., 80% humidity with light/dark cycles (12 hours each). The cages for mosquito ingestion assays were held in a temperature-controlled artificial feeding apparatus to allow continual access to organic bovine blood containing the desired concentration of compound. Fresh aliquots of compound-spiked bovine blood were provided daily for the duration of the study.
(§3) Mosquitoes showing no movement or mosquitoes that were knocked down were noted as dead. Results from trial 1 and trial 2 contact assays are shown in Tables 12 and 13, respectively and the results from trial 3 mosquito ingestion assay is shown in table 14.
(§4) For the mosquito contact and ingestion assays, each replicate contained 5 mosquitoes. For ease of calculation, the two replicates were added to equal a total of 10 mosquitoes.

Aedes aegypti [2] = test: In vitro ingestion activity against adult mosquitoes (artificial feeding, bovine blood); conditions: read-out: Mortality % R1 + R2
Description: as §1
For mosquito ingestion tests, serial dilutions of the compound stock were performed using DMSO to achieve the desired range for EC50 and EC90 determination. An aliquot of each compound dilution was added to organic bovine blood with a final DMSO concentration of 0.5% and placed in a temperature-controlled artificial feeding container.
Compounds tested were: the C1 racemate, C1 (R) enantiomer, and the C1 (S) enantiomer. For Trial 3, the C1 (R) enantiomer and the C1 (S) enantiomer were further chiral purified to achieve >99% purity.
as §2
as §3, with “Assessment of mortality/knockdown was performed at various time points between 30 minutes and 24 hours post infestation. Mosquitoes” for “Mosquitoes”
as §4

O=C(CC(F)(F)F)N1CC2(C1)OCc1cc(C3=NS[C@@](c4cc(Cl)c(F)c(Cl)c4)(C(F)(F)F)C3)ccc12 [C1 (S) enantiomer, (S)-1-[6-[5-(3,5-dichloro-4-fluoro-phenyl)-5-(trifluoromethyl)-4H-isothiazol-3-yl]spiro[1H-isobenzofuran-3,3′-azetidine]-1′-yl]-3,3,3-trifluoro-propan-1-one] gave a mortality at 0.049 µM (Aedes aegypti [1]; 12 h, read-out: % Mortality R1 + R2, Trial 2, contact assay, dose 0.049 μM, 12 hr) of 0%, a mortality at 0.2 µM (Aedes aegypti [1]; 12 h, read-out: % Mortality R1 + R2, Trial 2, contact assay, dose 0.20 μM, 12 hr) of 10% and a mortality at 0.78 µM (Aedes aegypti [1]; 12 h, read-out: % Mortality R1 + R2, Trial 2, contact assay, dose 0.78 μM, 12 hr) of 0%. It also gave a mortality at 3.125 µM (Aedes aegypti [1]; 12 h, read-out: % Mortality R1 + R2, Trial 2, contact assay, dose 3.125 μM, 12 hr) of 20%, a mortality at 12.5 µM (Aedes aegypti [1]; 12 h, read-out: % Mortality R1 + R2, Trial 2, contact assay, dose 12.5 μM, 12 hr) of 100% and a mortality at 50 µM (Aedes aegypti [1]; 12 h, read-out: % Mortality R1 + R2, Trial 2, contact assay, dose 50 μM, 12 hr) of 100%. For the same compound, the mortality at 0.049 µM (Aedes aegypti [1]; 24 h, read-out: % Mortality R1 + R2, Trial 1, contact assay, dose 0.049 μM, 24 hr) was 0%, the mortality at 0.2 µM (Aedes aegypti [1]; 24 h, read-out: % Mortality R1 + R2, Trial 1, contact assay, dose 0.20 μM, 24 hr) was 0% and the mortality at 0.78 µM (Aedes aegypti [1]; 24 h, read-out: % Mortality R1 + R2, Trial 1, contact assay, dose 0.78 μM, 24 hr) was 0%. For the same compound, the mortality at 3.125 µM (Aedes aegypti [1]; 24 h, read-out: % Mortality R1 + R2, Trial 1, contact assay, dose 3.125 μM, 24 hr) was 60%, the mortality at 12.5 µM (Aedes aegypti [1]; 24 h, read-out: % Mortality R1 + R2, Trial 1, contact assay, dose 12.5 μM, 24 hr) was 100% and the mortality at 50 µM (Aedes aegypti [1]; 24 h, read-out: % Mortality R1 + R2, Trial 1, contact assay, dose 50 μM, 24 hr) was 100%. For the same compound, the mortality at 0.049 µM (Aedes aegypti [1]; 24 h, read-out: % Mortality R1 + R2, Trial 2, contact assay, dose 0.049 μM, 24 hr) was 0%, the mortality at 0.2 µM (Aedes aegypti [1]; 24 h, read-out: % Mortality R1 + R2, Trial 2, contact assay, dose 0.20 μM, 24 hr) was 30% and the mortality at 0.78 µM (Aedes aegypti [1]; 24 h, read-out: % Mortality R1 + R2, Trial 2, contact assay, dose 0.78 μM, 24 hr) was 0%. The mortality at 3.125 µM (Aedes aegypti [1]; 24 h, read-out: % Mortality R1 + R2, Trial 2, contact assay, dose 3.125 μM, 24 hr) was 100%, the mortality at 12.5 µM (Aedes aegypti [1]; 24 h, read-out: % Mortality R1 + R2, Trial 2, contact assay, dose 12.5 μM, 24 hr) was 100% and the mortality at 50 µM (Aedes aegypti [1]; 24 h, read-out: % Mortality R1 + R2, Trial 2, contact assay, dose 50 μM, 24 hr) was 100%. The mortality at 0.049 µM (Aedes aegypti [1]; 48 h, read-out: % Mortality R1 + R2, Trial 1, contact assay, dose 0.049 μM, 48 hr) was 0%, the mortality at 0.2 µM (Aedes aegypti [1]; 48 h, read-out: % Mortality R1 + R2, Trial 1, contact assay, dose 0.20 μM, 48 hr) was 10% and the mortality at 0.78 µM (Aedes aegypti [1]; 48 h, read-out: % Mortality R1 + R2, Trial 1, contact assay, dose 0.78 μM, 48 hr) was 10%. For the same compound, the mortality at 3.125 µM (Aedes aegypti [1]; 48 h, read-out: % Mortality R1 + R2, Trial 1, contact assay, dose 3.125 μM, 48 hr) was 100%, the mortality at 12.5 µM (Aedes aegypti [1]; 48 h, read-out: % Mortality R1 + R2, Trial 1, contact assay, dose 12.5 μM, 48 hr) was 100% and the mortality at 50 µM (Aedes aegypti [1]; 48 h, read-out: % Mortality R1 + R2, Trial 1, contact assay, dose 50 μM, 48 hr) was 100%. It also gave a mortality at 0.049 µM (Aedes aegypti [1]; 48 h, read-out: % Mortality R1 + R2, Trial 2, contact assay, dose 0.049 μM, 48 hr) of 0%, a mortality at 0.2 µM (Aedes aegypti [1]; 48 h, read-out: % Mortality R1 + R2, Trial 2, contact assay, dose 0.20 μM, 48 hr) of 90% and a mortality at 0.78 µM (Aedes aegypti [1]; 48 h, read-out: % Mortality R1 + R2, Trial 2, contact assay, dose 0.78 μM, 48 hr) of 100%. The mortality at 3.125 µM (Aedes aegypti [1]; 48 h, read-out: % Mortality R1 + R2, Trial 2, contact assay, dose 3.125 μM, 48 hr) was 100%, the mortality at 12.5 µM (Aedes aegypti [1]; 48 h, read-out: % Mortality R1 + R2, Trial 2, contact assay, dose 12.5 μM, 48 hr) was 100% and the mortality at 50 µM (Aedes aegypti [1]; 48 h, read-out: % Mortality R1 + R2, Trial 2, contact assay, dose 50 μM, 48 hr) was 100%. It also gave a mortality at 0.049 ppm (Aedes aegypti [2]; 24 h) of 70%, a mortality at 0.2 ppm (Aedes aegypti [2]; 24 h) of 100% and a mortality at 0.78 ppm (Aedes aegypti [2]; 24 h) of 100%. The mortality at 3.125 ppm (Aedes aegypti [2]; 24 h) was 100%, the mortality at 12.5 ppm (Aedes aegypti [2]; 24 h) was 100% and the mortality at 50 ppm (Aedes aegypti [2]; 24 h) was 100%. For the same compound, the mortality at 0.049 ppm (Aedes aegypti [2]) was 0%, the mortality at 0.2 ppm (Aedes aegypti [2]) was 44.4% and the mortality at 0.78 ppm (Aedes aegypti [2]) was 100%. It also gave a mortality at 3.125 ppm (Aedes aegypti [2]) of 100%, a mortality at 12.5 ppm (Aedes aegypti [2]) of 100% and a mortality at 50 ppm (Aedes aegypti [2]) of 100%.
